Experimental data as given in ChEMBL document CHEMBL1144115, “Antibacterial diterpenoid acids from Azorella compacta” (1999).
The source made the active and inactive calls. No cut-off for these calls is given here. Where a SMILES comes first, the peptide text is derived from it. Bridges are numbered along the chain shown (N, C = ends). [ ]: non-standard residue; d: D form. The star is where a group is joined. Ileψ(thiazoline)Cys = CC[C@H](C)[C@H](N)C1=N[C@H](C(=O)*)CS1; dOrn = NCCC[C@@H](N)C(=O)O

Legend:
Candida albicans = assay: Antimicrobial activity against Candida albicans at 200 ug after 18 hrs by agar diffusion test; type: functional, organism-based
Staphylococcus aureus [1] = assay: Antibacterial activity against methicillin-susceptible Staphylococcus aureus at 200 ug after 18 hrs by agar diffusion test; type: functional; conditions: for zone of inhibition at 200 µg/disc: read-out: IZ
Enterococcus faecium [2] = assay: Antibacterial activity against vancomycin-resistant Enterococcus faecium at 200 ug after 18 hrs by agar diffusion test; type: functional; conditions: for zone of inhibition at 200 µg/disc: read-out: IZ
Staphylococcus aureus [3] = assay: Antibacterial activity against methicillin-resistant Staphylococcus aureus at 200 ug after 18 hrs by agar diffusion test; type: functional; conditions: for zone of inhibition at 200 µg/disc: read-out: IZ
Escherichia coli [4] = assay: Antibacterial activity against Escherichia coli BAS849 mutant at 200 ug after 18 hrs by agar diffusion test; type: functional; conditions: for zone of inhibition at 200 µg/disc: read-out: IZ
Escherichia coli [5] = assay: Antibacterial activity against Escherichia coli BAS849 mutant at 30 ug after 18 hrs by agar diffusion test; type: functional; conditions: read-out: IZ
Enterococcus faecium [6] = assay: Antibacterial activity against vancomycin-resistant Enterococcus faecium at 10 ug after 18 hrs by agar diffusion test; type: functional; conditions: read-out: IZ
Staphylococcus aureus [7] = assay: Antibacterial activity against methicillin-susceptible Staphylococcus aureus at 30 ug after 18 hrs by agar diffusion test; type: functional; conditions: read-out: IZ
Staphylococcus aureus [8] = assay: Antibacterial activity against methicillin-resistant Staphylococcus aureus at 30 ug after 18 hrs by agar diffusion test; type: functional; conditions: read-out: IZ

CC1=CC(=O)[C@H]2[C@@H]3CC[C@H](C(C)C)[C@@]3(C(=O)O)CC[C@@]2(C)CC1=O
Activity (Candida albicans): inactive
zone of inhibition at 200 µg/disc (Staphylococcus aureus [1]): 8 mm
zone of inhibition at 200 µg/disc (Enterococcus faecium [2]): 8 mm
zone of inhibition at 200 µg/disc (Staphylococcus aureus [3]): 8 mm
zone of inhibition at 200 µg/disc (Escherichia coli [4]): 8 mm

CC(C)[C@H]1CC[C@H]2[C@@H]3C=C[C@](C)(O)CC[C@]3(C)CC[C@]12C(=O)O
Activity (Candida albicans): inactive
Activity (Staphylococcus aureus [1]): inactive
Activity (Enterococcus faecium [2]): inactive
Activity (Staphylococcus aureus [3]): inactive
Activity (Escherichia coli [4]): inactive

CC1=CC[C@]2(C)CC[C@]3(C(=O)O)[C@@H](C(C)C)CC[C@H]3[C@@H]2C=C1
Activity (Candida albicans): inactive
Activity (Staphylococcus aureus [1]): inactive
Activity (Enterococcus faecium [2]): inactive
Activity (Staphylococcus aureus [3]): inactive
Activity (Escherichia coli [4]): inactive

CO[C@@]1(NC(=O)Cc2cccs2)C(=O)N2C(C(=O)O)=C(COC(N)=O)CS[C@@H]21 [CEFOXITIN]
zone of inhibition at 30 µg/disc (Escherichia coli [5]): 16 mm

CC1=CC(=O)[C@H]2[C@@H]3CC[C@H](C(C)C)[C@@]3(C(=O)O)CC[C@@]2(C)C=C1
Activity (Candida albicans): inactive
zone of inhibition at 200 µg/disc (Staphylococcus aureus [1]): 8 mm
zone of inhibition at 200 µg/disc (Enterococcus faecium [2]): 8 mm
zone of inhibition at 200 µg/disc (Staphylococcus aureus [3]): 8 mm
zone of inhibition at 200 µg/disc (Escherichia coli [4]): 8 mm

CC[C@H](C)[C@H](N)C1=N[C@H](C(=O)N[C@@H](CC(C)C)C(=O)N[C@H](CCC(=O)O)C(=O)N[C@H](C(=O)N[C@H]2CCCCNC(=O)[C@H](CC(N)=O)NC(=O)[C@@H](CC(=O)O)NC(=O)[C@H](Cc3cnc[nH]3)NC(=O)[C@@H](Cc3ccccc3)NC(=O)[C@H]([C@@H](C)CC)NC(=O)[C@@H](CCCN)NC2=O)[C@@H](C)CC)CS1 [BACITRACIN] ({Ileψ(thiazoline)Cys}-L[dE]IK[dOrn]I[dF]H[dD]N; lactam 4-C)
zone of inhibition at 10 µg/disc (Enterococcus faecium [6]): 16 mm

CN[C@H](CC(C)C)C(=O)N[C@H]1C(=O)N[C@@H](CC(N)=O)C(=O)N[C@H]2C(=O)N[C@H]3C(=O)N[C@H](C(=O)N[C@H](C(=O)O)c4cc(O)cc(O)c4-c4cc3ccc4O)[C@H](O)c3ccc(c(Cl)c3)Oc3cc2cc(c3O[C@@H]2O[C@H](CO)[C@@H](O)[C@H](O)[C@H]2O[C@H]2C[C@](C)(N)[C@H](O)[C@H](C)O2)Oc2ccc(cc2Cl)[C@H]1O [VANCOMYCIN]
zone of inhibition at 30 µg/disc (Staphylococcus aureus [7]): 16 mm
zone of inhibition at 30 µg/disc (Staphylococcus aureus [8]): 16 mm
